Measurements taken from PubChem BioAssay (NCI).
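All cell lines were grown in 96-well plates and treated with compound for 48 hours. At the GI50, growth is halved. TGI is the concentration that stops growth completely.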

Key:
Assay in all cases: NCI tumour cell line growth inhibition, 48 h
786-0 renal = tested on: 786-0 renal
A498 renal = tested on: A498 renal
A549 NSCLC = tested on: A549 NSCLC
ACHN renal = tested on: ACHN renal
BT-549 breast = tested on: BT-549 breast
CAKI-1 renal = tested on: CAKI-1 renal
CCRF-CEM leukemia = tested on: CCRF-CEM leukemia
COLO 205 colon = tested on: COLO 205 colon
DU-145 prostate = tested on: DU-145 prostate
EKVX NSCLC = tested on: EKVX NSCLC
HCC-2998 colon = tested on: HCC-2998 colon
HCT-116 colon = tested on: HCT-116 colon
HCT-15 colon = tested on: HCT-15 colon
HL-60(TB) leukemia = tested on: HL-60(TB) leukemia
HOP-62 NSCLC = tested on: HOP-62 NSCLC
HOP-92 NSCLC = tested on: HOP-92 NSCLC
HS 578T breast = tested on: HS 578T breast
HT29 colon = tested on: HT29 colon
IGROV1 ovarian = tested on: IGROV1 ovarian
K-562 leukemia = tested on: K-562 leukemia
KM12 colon = tested on: KM12 colon
LOX IMVI melanoma = tested on: LOX IMVI melanoma
M14 melanoma = tested on: M14 melanoma
MALME-3M melanoma = tested on: MALME-3M melanoma
MCF7 breast = tested on: MCF7 breast
MDA-MB-231 breast = tested on: MDA-MB-231 breast
MDA-MB-435 = tested on: MDA-MB-435
MOLT-4 leukemia = tested on: MOLT-4 leukemia
NCI-H226 lung = tested on: NCI-H226 lung
NCI-H23 lung = tested on: NCI-H23 lung
NCI-H460 lung = tested on: NCI-H460 lung
NCI-H522 lung = tested on: NCI-H522 lung
NCI/ADR-RES ovarian = tested on: NCI/ADR-RES ovarian
OVCAR-3 ovarian = tested on: OVCAR-3 ovarian
OVCAR-4 ovarian = tested on: OVCAR-4 ovarian
OVCAR-5 ovarian = tested on: OVCAR-5 ovarian
OVCAR-8 ovarian = tested on: OVCAR-8 ovarian
PC-3 prostate = tested on: PC-3 prostate
RPMI-8226 leukemia = tested on: RPMI-8226 leukemia
RXF 393 renal = tested on: RXF 393 renal
SF-268 CNS = tested on: SF-268 CNS
SF-295 CNS = tested on: SF-295 CNS
SF-539 CNS = tested on: SF-539 CNS
SK-MEL-2 melanoma = tested on: SK-MEL-2 melanoma
SK-MEL-28 melanoma = tested on: SK-MEL-28 melanoma
SK-MEL-5 melanoma = tested on: SK-MEL-5 melanoma
SK-OV-3 ovarian = tested on: SK-OV-3 ovarian
SN12C renal = tested on: SN12C renal
SNB-19 CNS = tested on: SNB-19 CNS
SNB-75 CNS = tested on: SNB-75 CNS
SR leukemia = tested on: SR leukemia
SW-620 colon = tested on: SW-620 colon
T-47D breast = tested on: T-47D breast
TK-10 renal = tested on: TK-10 renal
U251 CNS = tested on: U251 CNS
UACC-257 melanoma = tested on: UACC-257 melanoma
UACC-62 melanoma = tested on: UACC-62 melanoma
UO-31 renal = tested on: UO-31 renal

Cc1cc2nc3c4cc(C=O)ccc4n(CCN(C)C)c3nc2cc1C
GI50 (786-0 renal): 1430 nM
TGI (786-0 renal): 9960 nM
GI50 (A498 renal): 500 nM
TGI (A498 renal): 2090 nM
GI50 (A549 NSCLC): 851 nM
TGI (A549 NSCLC): 10400 nM
GI50 (ACHN renal): 426 nM
TGI (ACHN renal): 4560 nM
GI50 (BT-549 breast): 2150 nM
TGI (BT-549 breast): 5350 nM
GI50 (CAKI-1 renal): 1700 nM
TGI (CAKI-1 renal): 9690 nM
GI50 (CCRF-CEM leukemia): 1140 nM
TGI (CCRF-CEM leukemia): 7770 nM
GI50 (COLO 205 colon): 574 nM
TGI (COLO 205 colon): 2100 nM
GI50 (DU-145 prostate): 3030 nM
TGI (DU-145 prostate): 10600 nM
GI50 (EKVX NSCLC): 2040 nM
TGI (EKVX NSCLC): 6270 nM
GI50 (HCC-2998 colon): 1330 nM
TGI (HCC-2998 colon): 3140 nM
GI50 (HCT-116 colon): 484 nM
TGI (HCT-116 colon): 9100 nM
GI50 (HCT-15 colon): 1360 nM
TGI (HCT-15 colon): 7240 nM
GI50 (HL-60(TB) leukemia): 1350 nM
TGI (HL-60(TB) leukemia): 5840 nM
GI50 (HOP-62 NSCLC): 1540 nM
TGI (HOP-62 NSCLC): 10100 nM
GI50 (HOP-92 NSCLC): 1490 nM
TGI (HOP-92 NSCLC): 7350 nM
GI50 (HS 578T breast): 2250 nM
TGI (HS 578T breast): 6700 nM
GI50 (HT29 colon): 656 nM
TGI (HT29 colon): 3740 nM
GI50 (IGROV1 ovarian): 1520 nM
TGI (IGROV1 ovarian): 6390 nM
GI50 (K-562 leukemia): 820 nM
TGI (K-562 leukemia): 18600 nM
GI50 (KM12 colon): 2120 nM
TGI (KM12 colon): 10000 nM
GI50 (LOX IMVI melanoma): 532 nM
TGI (LOX IMVI melanoma): 2500 nM
GI50 (M14 melanoma): 1300 nM
TGI (M14 melanoma): 2950 nM
GI50 (MALME-3M melanoma): 1290 nM
TGI (MALME-3M melanoma): 2760 nM
GI50 (MCF7 breast): 1820 nM
TGI (MCF7 breast): 5990 nM
GI50 (MDA-MB-231 breast): 1830 nM
TGI (MDA-MB-231 breast): 6990 nM
GI50 (MDA-MB-435): 1660 nM
TGI (MDA-MB-435): 3070 nM
GI50 (MOLT-4 leukemia): 389 nM
TGI (MOLT-4 leukemia): 10300 nM
GI50 (NCI-H226 lung): 2070 nM
TGI (NCI-H226 lung): 7320 nM
GI50 (NCI-H23 lung): 1490 nM
TGI (NCI-H23 lung): 4450 nM
GI50 (NCI-H460 lung): 1190 nM
TGI (NCI-H460 lung): 10100 nM
GI50 (NCI-H522 lung): 1870 nM
TGI (NCI-H522 lung): 4910 nM
GI50 (NCI/ADR-RES ovarian): 607 nM
TGI (NCI/ADR-RES ovarian): 6970 nM
GI50 (OVCAR-3 ovarian): 1970 nM
TGI (OVCAR-3 ovarian): 6580 nM
GI50 (OVCAR-4 ovarian): 2120 nM
TGI (OVCAR-4 ovarian): 7750 nM
GI50 (OVCAR-5 ovarian): 2170 nM
TGI (OVCAR-5 ovarian): 7230 nM
GI50 (OVCAR-8 ovarian): 777 nM
TGI (OVCAR-8 ovarian): 10900 nM
GI50 (PC-3 prostate): 1620 nM
TGI (PC-3 prostate): 5710 nM
GI50 (RPMI-8226 leukemia): 1910 nM
TGI (RPMI-8226 leukemia): 5160 nM
GI50 (RXF 393 renal): 1060 nM
TGI (RXF 393 renal): 2740 nM
GI50 (SF-268 CNS): 2050 nM
TGI (SF-268 CNS): 6630 nM
GI50 (SF-295 CNS): 696 nM
TGI (SF-295 CNS): 5690 nM
GI50 (SF-539 CNS): 1510 nM
TGI (SF-539 CNS): 3870 nM
GI50 (SK-MEL-2 melanoma): 1760 nM
TGI (SK-MEL-2 melanoma): 3650 nM
GI50 (SK-MEL-28 melanoma): 1780 nM
TGI (SK-MEL-28 melanoma): 3650 nM
GI50 (SK-MEL-5 melanoma): 1690 nM
TGI (SK-MEL-5 melanoma): 3330 nM
GI50 (SK-OV-3 ovarian): 2350 nM
TGI (SK-OV-3 ovarian): 10900 nM
GI50 (SN12C renal): 1030 nM
TGI (SN12C renal): 8040 nM
GI50 (SNB-19 CNS): 1650 nM
TGI (SNB-19 CNS): 9090 nM
GI50 (SNB-75 CNS): 1980 nM
TGI (SNB-75 CNS): 5000 nM
GI50 (SR leukemia): 435 nM
TGI (SR leukemia): 11100 nM
GI50 (SW-620 colon): 479 nM
TGI (SW-620 colon): 4310 nM
GI50 (T-47D breast): 2140 nM
TGI (T-47D breast): 7040 nM
GI50 (TK-10 renal): 1970 nM
TGI (TK-10 renal): 6590 nM
GI50 (U251 CNS): 1650 nM
TGI (U251 CNS): 10100 nM
GI50 (UACC-257 melanoma): 1960 nM
TGI (UACC-257 melanoma): 4800 nM
GI50 (UACC-62 melanoma): 1750 nM
TGI (UACC-62 melanoma): 3700 nM
GI50 (UO-31 renal): 846 nM
TGI (UO-31 renal): 8780 nM
